Test results from patent US12402622B2, “Agricultural compositions and methods of use thereof” (Valent U.S.A. LLC, priority 2019, dated 2025).

How the values were obtained:
barnyard grass [1] = assay: Control of barnyard grass (6 inches), spray chamber, Example 1; format: in vivo, Echinochloa crus-galli; details: S-3100 20 g/HA, mannitol or sorbitol 6800 g/HA where combined
Experimental: 4 trials were conducted on the efficacy of ethyl [3-[2-chloro-4-fluoro-5-(1-methyl-6-trifluoromethyl-2,4-dioxo-1,2,3,4-tetrahydropyrimidin-3-yl)phenoxy]-2-pyridyloxy]acetate (“S-3100”) with or without mannitol or sorbitol. Specifically, 4 plots of barnyard grass were grown to 6 inches in height. These plots were placed in a spray chamber for treatment. All compositions contained 1% v/v of Agridex® and 0.25% v/v of Induce®. Treatments and results can be found in Table 1, below.

corn = assay: Control of corn (12 inches), spray chamber, Example 2; format: in vivo; details: S-3100 20 g/HA, mannitol or sorbitol 6800 g/HA where combined
Experimental: 4 trials were conducted on the efficacy of S-3100 with or without mannitol or sorbitol. Specifically, 4 plots of corn were grown to 12 inches in height. These plots were placed in a spray chamber for treatment. All compositions contained 1% v/v of Agridex® and 0.25% v/v of Induce®. Treatments and results can be found in Table 2, below.

volunteer corn = assay: Control and lodging of volunteer corn (14 inches), spray chamber, sugar alcohol rate series, Example 4; format: in vivo; details: for lodging on addition of the sugar alcohol to S-3100: addition to S-3100, rate not given; for control of volunteer corn relative to S-3100 alone: sugar alcohol at 1700, 3400, 6800, 13600 and 27200 g/HA with S-3100
Experimental: (§1) 12 trials were conducted on the efficacy of S-3100 with or without mannitol or sorbitol at various application rates. Specifically, 12 plots of volunteer corn were grown to 14 inches in height. These plots were placed in a spray chamber for treatment. All compositions contained 1% v/v of Agridex® and 0.25% v/v of Induce®. Treatments and results can be found in Table 4, below.

crabgrass = assay: Control of crabgrass (10 inches), spray chamber, sugar alcohol rate series, Example 3; format: in vivo, Digitaria sanguinalis; details: for % control: S-3100 20 g/HA alone; for control of crabgrass relative to S-3100 alone: 7 and 14 DAT, sugar alcohol at 1700, 3400, 6800, 13600 and 27200 g/HA with S-3100
Experimental: as §1, with “crabgrass” for “volunteer corn”, “10” for “14”, “3,” for “4,”

barnyard grass [2] = assay: Control of barnyard grass (10 inches), spray chamber, sugar alcohol rate series, Example 5; format: in vivo, Echinochloa crus-galli; details: for % control: S-3100 20 g/HA alone; for control of barnyard grass relative to S-3100 alone: 7 and 14 DAT, sugar alcohol at 1700, 3400, 6800, 13600 and 27200 g/HA with S-3100
Experimental: as §1, with “barnyard grass” for “volunteer corn”, “10” for “14”, “5,” for “4,”

[3] = tested on: soybean petioles/leaves at V6 stage; assay: Soybean petiole detached assay (translocation of S-3100), Example 6; format: in vivo; details: 21 DAT, S-3100 20 g/HA, mannitol or sorbitol 6800 g/HA, FIG. 1
Experimental: FIG. 1. Soybean plant leaf at V6 stage. A. untreated control. B. Treated with 20 g/HA S-3100. C. Treated with 6800 g/HA mannitol. D. Treated with 6800 g/HA sorbitol. E. Treated with 20 g/HA S-3100 and 6800 g/HA mannitol. F. Treated with 20 g/HA S-3100 and 6800 g/HA sorbitol.
4 plots of soybeans were grown to the V6 stage. Soybean petioles of plants at the V6 stage were treated in a petiole detached assay with 1 of the following 4 treatments: 1) untreated; 2) 20 g/HA S-3100; 3) 20 g/HA S-3100 and 6800 g/HA mannitol or 4) 20 g/HA S-3100 and 6800 g/HA sorbitol. Results were recorded 21 DAT. Results can be seen in FIG. 1.

SMILES | % control (barnyard grass [1]; 2 days after treatment, 1% v/v Agridex, 0.25% v/v Induce) | % control (barnyard grass [1]; 7 days after treatment) | % control (barnyard grass [1]; 13 days after treatment) | % control (barnyard grass [1]; 20 days after treatment) | % control (corn; 9 days after treatment, 1% v/v Agridex, 0.25% v/v Induce) | % control (corn; 13 days after treatment) | % control (corn; 22 days after treatment) | % control (volunteer corn; 7 DAT, S-3100 20 g/HA alone) | % lodging (volunteer corn; 8 DAT, S-3100 20 g/HA alone) | % control (crabgrass; 7 DAT) | % control (crabgrass; 14 DAT) | % control (barnyard grass [2]; 7 DAT) | % control (barnyard grass [2]; 14 DAT) | leaf symptoms (necrosis, yellowing, bronzing) as sign of translocation [3] | lodging on addition of the sugar alcohol to S-3100 (volunteer corn) | control of volunteer corn relative to S-3100 alone (volunteer corn) | control of crabgrass relative to S-3100 alone (crabgrass) | control of barnyard grass relative to S-3100 alone (barnyard grass [2])
CCOC(=O)COc1ncccc1Oc1cc(-n2c(=O)cc(C(F)(F)F)n(C)c2=O)c(F)cc1Cl [S-3100, ethyl [3-[2-chloro-4-fluoro-5-(1-methyl-6-trifluoromethyl-2,4-dioxo-1,2,3,4-tetrahydropyrimidin-3-yl)phenoxy]-2-pyridyloxy]acetate] | 27.2% | 72.1% | 49.3% | 40% | 55.8% | 52.5% | 25% | 80.6% | 75% | 81.3% | 76.9% | 94.1% | 89.1% | leaf yellowing and vein necrosis especially on the main vascular tissue | – | – | – | –
OC[C@@H](O)[C@@H](O)[C@H](O)[C@H](O)CO [mannitol] | – | – | – | – | – | – | – | – | – | – | – | – | – | necrotic areas on the leaf tissue | did not increase lodging | increase control of volunteer corn over S-3100 alone | increase control of crabgrass over S-3100 alone | increase control of barnyard grass over S-3100 alone
OC[C@@H](O)[C@@H](O)[C@H](O)[C@@H](O)CO [sorbitol] | – | – | – | – | – | – | – | – | – | – | – | – | – | – | 100% | increase control of volunteer corn over S-3100 alone | increase control of crabgrass over S-3100 alone | increase control of barnyard grass over S-3100 alone
